{
  "source": "patent US6346539B1",
  "about": "“Treatment of skin conditions” (BTG International Limited, priority 1998, dated 2002)",
  "key": {"[1]": {"test_system": "Melan-a", "assay": "Effects of piperine and TPA on growth of Melan-a (panel of cell types)", "type": "cell-based, mouse", "details": "piperine 0.1 and 1 μM (FIG. 4)", "protocol": "(§1) Cells of mouse melan-a cell line (passage number 18-24), a first known line of non-tumorigenic pigmented mouse melanocytes were maintained in a flask (Costar, Cambridge, Mass., USA) using RPMI 1640 (ICN, Costa, Mesa, Calif., USA) as a basic medium. For microplate proliferation assays, subconfluent melan-a cultures were trypsinized (0.25% trypsin at 37° C. for 5-10 min) and inoculated with a repeater-pipettor (Finn pipette, Labsystems, Finland) into 96-well microtiter plates (Costar, Cambridge, Mass., USA). The plates were incubated at 37° C. in a 10% CO2, 90% air humidified atmosphere for the stated length of time. At the end of the incubation, an SRB assay was performed. Briefly, cells attached to the bottom of the plate were fixed by addition of cold trichloroacetic acid (TCA, 4° C., Aldrich, Dorset, UK) on the top of the growth medium (final TCA 20% w/v). The plate was placed at 4° C. for 1 hour before being gently washed five times with tap water. It was allowed to dry in air, or aided with a hair dryer to speed up the drying process, then 50 μl of 4% w/v SRB dissolved in 1% acetic acid in water was added to each well for 30 min. […] The plate was shaken for 15 min on a gyratory shaker followed by reading the optical density (OD) at 550 nm in a microplate spectrophotometer (Anthos Labtec HT3, version 1.06). […]"}, "[2]": {"test_system": "FM21E Melanoblast", "assay": "Effects of piperine and TPA on growth of human melanoblasts, SRB assay", "type": "cell-based", "protocol": "(§2) In order to determine the specificity of piperine, a panel of different cell types were employed to facilitate this investigation. These included melan-a, melan-c, SVK14, CSM, XB2, SC1, B16F10, IM9, CACO2, Swiss 3T3 cell lines and normal human lymphocytes. TPA (20 nM) was also tested on these cells.\nHuman melanoblasts in culture in this experiment were established from human foetal skin. Subconfluent melanoblasts maintained in MCDB 153 medium supplemented with 10% FBS, 10 ng/ml stem cell factor (SCF) and 1 nM endothelin 3 were subcultured and inoculated into 96-well microplate with 6×10^3 cells/100 μl/well. After incubation in the 10% CO2, humidified atmosphere, at 37° C. for 3-4 hours to allow the attachment of the cells on the plate, piperine dissolved in MeOH and water was added into the wells. The final concentrations of piperine were 1, 5, 10, 100 μM, with TPA (20 nM) as positive control. Six replicates were used in each group of treatment, with 12 wells used for vehicle control. The incubation was conducted for 5 days before cells were harvested by fixing with cold trichloroacetic acid (TCA, at 4° C., final concentration 20% v/v), and evaluated for cell number using an SRB assay. […] Growth in the presence of piperine and TPA was expressed as % of control incubations containing no piperine or TPA. […]"}, "[3]": {"test_system": "FM21E human melanocytes", "assay": "Effects of piperine and TPA on growth of human melanocytes, 24-well plate, SRB assay", "type": "cell-based", "protocol": "as §2\nFor the first protocol, subconfluent human melanocytes maintained in a Ø100 mm petri dish were subcultured into two 24-well plates (Falcon) using basic culture medium of RPMI 1640 supplemented with FBS (10%), bFGF (100 pM), CT (1 nM) and endothelin 1 (1 nM). The initial plating density was 20,000 cells/cm^2 (38,200 cells/well) with each well containing 1000 μl medium. After incubation in a 10% CO2, humidified atmosphere, at 37° C. for 2-3 hours to allow the attachment of the cells, piperine in 500 μl medium was added into wells to made up final concentrations of 0, 1, 5, 10 and 100 μM. Cells only in the medium with above supplement lacking of endothelin 1 were also set up as negative control. Six replicates were used in each group of treatment, and culture was incubated for 5 days before the cells were harvested by fixing with cold TCA (final concentration 20%) and processed with SRB assay. The solubilized SRB dye solution was transferred to a 96-well plate for optical density reading."}, "[4]": {"test_system": "B16F10 mouse melanoma", "assay": "Effects of piperine and TPA on growth of B16F10 (panel)", "type": "cell-based", "protocol": "as §2"}, "[5]": {"test_system": "human melanocytes", "assay": "Proliferation of human melanocytes cultured in petri dishes, haemocytometer count", "type": "cell-based", "protocol": "(§3) For the second protocol, subconfluent human melanocytes were subcultured in a Ø60 mm petri dishes (28 cm^2, Falcon) with RPMI 1640 basic medium supplemented with FBS (10%), CT (1 nM), bFGF (100 pM) and endothelin 1 (1 nM). The initial plating density was 10,000 cells/cm^2, with 5 ml medium per dish. Cells were incubated for 2-3 hours in 10% CO2, humidified atmosphere, at 37° C., followed by addition of piperine solution in to the dishes, making the final concentrations of 0, 1, 5, 10 and 100 μM. Cells in the above supplemented medium lacking endothelin 1 were also set up as a negative control. Three dishes were used for each treatment and the culture was maintained for 5 days before cells were harvested with trypsinisation and counted with a haemocytometer chamber. For melanin production experiment, the harvested cells were centrifuged and pelleted. After carefully removing the medium, NaOH (1 M) was used to solubilized the cell pellets and optical density read at 475 nm in a Perkin-Elmer UV spectrophotometer (model UV/VIS Lambda 2). The melanin content was calculated by using a regression equation y=0.005+0.005× corresponding to the calibration curve for synthetic melanin."}, "[6]": {"test_system": "human melanocytes", "assay": "Melanin production of human melanocytes cultured in petri dishes", "type": "cell-based", "details": "5 days", "protocol": "as §3"}, "[7]": {"test_system": "melan-a cells", "assay": "Effect of RO-31-8220 on growth of melan-a cells with piperine and TPA, SRB assay", "type": "cell-based, mouse", "details": "4 days", "protocol": "as §1"}, "[8]": {"test_system": "melan-a cells", "assay": "Proliferation of melan-a cells counted with haemocytometer", "type": "cell-based, mouse", "parameters": "unit not given here", "details": "20 nM TPA; 4 days", "protocol": "Melan-a cells were plated in petri dishes (Ø35 mm, Nunclon, Denmark) with a plating density of 2×10^4/ml and Piper nigrum extract at concentrations of 0.01 and 0.1 mg/ml. A negative control (cells in medium only) and positive TPA (20 nM) control were also set up. After 4 days the cells in each dish were harvested and counted with haemocytometer."}},
  "note": "Marks after values point to notes of the source that are not given here.",
  "data": [
    {"compound": "O=C(/C=C/C=C/c1ccc2c(c1)OCO2)N1CCCCC1", "note": "[Piperine, (E,E)-1-[5-(1,3-benzodioxol-5-yl)-1-oxo-2,4-pentadienyl]piperidine]", "values": [
      {"measurement": "effect on melan-a proliferation", "setting": "[1]", "value": "significantly stimulated melan-a proliferation"},
      {"measurement": "more cell yield compared to vehicle control", "setting": "[2]; 100 μM piperine for 5 days", "value": 34, "unit": "%"},
      {"measurement": "more cells yielded", "setting": "[3]; 10 μM piperine for 5 days, 24-well plate, ET1 1 nM", "value": 36, "unit": "%"},
      {"measurement": "effect on the growth of human melanocytes", "setting": "[3]; piperine 100 μM, 24-well plate", "value": "inhibitory effect"},
      {"measurement": "effect on B16 mouse melanoma cell line", "setting": "[4]", "value": "inhibitory effects"},
      {"measurement": "cell number relative to ET1 (1 nM) control", "setting": "[5]; 5 μM piperine for 5 days, petri dishes", "value": "over twice as many"},
      {"measurement": "Cell no. (×10^−4) ± SD after cultured for 5 days", "setting": "[5]; ET1 (1 nM) + piperine (1 μM)", "value": "60.83 ± 16.78 ×10^−4"},
      {"measurement": "Cell no. (×10^−4) ± SD after cultured for 5 days", "setting": "[5]; ET1 (1 nM) + piperine (5 μM)", "value": "78.96 ± 5.63 ×10^−4"},
      {"measurement": "Cell no. (×10^−4) ± SD after cultured for 5 days", "setting": "[5]; ET1 (1 nM) + piperine (10 μM)", "value": "64.79 ± 13.47 ×10^−4"},
      {"measurement": "Cell no. (×10^−4) ± SD after cultured for 5 days", "setting": "[5]; ET1 (1 nM) + piperine (100 μM)", "value": "61.04 ± 10.04 ×10^−4"},
      {"measurement": "activity at 1 µM", "setting": "[5]; Homo sapiens, Melanocyte, 120 h, ET1 (1 nM) + piperine (1 μM), 5 days, read-out: % of control (ET1 1 nM)", "value": 169, "unit": "%"},
      {"measurement": "activity at 5 µM", "setting": "[5]; Homo sapiens, Melanocyte, 120 h, ET1 (1 nM) + piperine (5 μM), 5 days, read-out: % of control (ET1 1 nM)", "value": 219, "unit": "%"},
      {"measurement": "activity at 10 µM", "setting": "[5]; Homo sapiens, Melanocyte, 120 h, ET1 (1 nM) + piperine (10 μM), 5 days, read-out: % of control (ET1 1 nM)", "value": 180, "unit": "%"},
      {"measurement": "activity at 100 µM", "setting": "[5]; Homo sapiens, Melanocyte, 120 h, ET1 (1 nM) + piperine (100 μM), 5 days, read-out: % of control (ET1 1 nM)", "value": 169, "unit": "%"},
      {"measurement": "Melanin content/10^4 cells", "setting": "[6]; ET1 (1 nM) + piperine (1 μM)", "value": "0.42 ± 0.03", "unit": "μg"},
      {"measurement": "OD reading ± SD at 475 nm", "setting": "[6]; ET1 (1 nM) + piperine (1 μM)", "value": "0.134 ± 0.014"},
      {"measurement": "Melanin content/10^4 cells", "setting": "[6]; ET1 (1 nM) + piperine (5 μM)", "value": "0.334 ± 0.01", "unit": "μg"},
      {"measurement": "Melanin content/10^4 cells", "setting": "[6]; ET1 (1 nM) + piperine (10 μM)", "value": "0.41 ± 0.07", "unit": "μg"},
      {"measurement": "Melanin content/10^4 cells", "setting": "[6]; ET1 (1 nM) + piperine (100 μM)", "value": "0.46 ± 0.001", "unit": "μg"}
    ]},
    {"compound": "Cn1cc(C2=C(c3cn(CCCSC(=N)N)c4ccccc34)C(=O)NC2=O)c2ccccc21", "note": "[RO-31-8220]", "values": [
      {"measurement": "effect of RO-31-8220 on the proliferant effects of piperine and TPA on melan-a cells", "setting": "[7]; RO-31-8220 0.1-100 nM, piperine 1 μM, TPA 20 nM", "value": "effectively inhibited"},
      {"measurement": "cytotoxic effect of RO-31-8220 alone on melan-a cells", "setting": "[7]; concentrations up to 100 nM", "value": "did not have significant cytotoxic effect"}
    ]},
    {"compound": "tetradecanoyl phorbol acetate [TPA, reference compound]", "values": [
      {"measurement": "cell number", "setting": "[8]", "value": "5.0*"},
      {"measurement": "more cell yield compared to vehicle control", "setting": "[2]; TPA 20 nM for 5 days", "value": "over 50%"},
      {"measurement": "effect on the growth of human melanocytes", "setting": "[3]; TPA 20 nM in the presence of 1 nM endothelin 1", "value": "not able to stimulate cell growth"}
    ]}
  ]
}
